Compound | melting point [°C]
Clc1ccc(Nc2nc(-c3nccc4ccccc34)nc3ccccc23)cc1 | 279 to 280
NC(=O)NN=Cc1ccc(OC2C3CC4CC(C3)CC2C4)cc1 (stereo not given) | 226 to 228
Clc1ccc2[nH]c(SCc3nc4ccccc4s3)nc2c1 | 176 to 180
Oc1ccc(Nc2ncc3ncc(-c4ccccc4O)cc3n2)cc1 | 262 to 264
COC(=O)NC(=O)c1nc(Cl)c(Cl)[nH]1 | 247
Cc1cc(C)cc(S(=O)(=O)c2c(C(C)C)nc(C)n2C)c1 | 126 to 128
Cc1cc(SC2=C(O)CC(CCc3ccc(O)cc3)(CCc3ccc(O)cc3)OC2=O)c(C(C)(C)C)cc1OS(=O)(=O)N1CCN(C)CC1 | 150
CC(NC(=O)Nc1ccc(CN2C(=O)C3CCCC3N(C(=O)CN3C(=O)c4ccccc4C3=O)c3ccccc32)cc1)c1ccccc1 (stereo not given) | 156 to 160
O=[N+]([O-])c1cc(-c2cn3c(n2)sc2ccccc23)cc(O)c1O | 303 to 305
Cc1ccc(C(=O)O)c(NC(=O)CCCCNC(=O)OC(C)(C)C)c1 | 212
Nc1ccc(S(=O)(=O)c2cc(-c3cc(C(F)(F)F)cc(C(F)(F)F)c3)nc(N3CCCC3)c2)cc1 | 184 to 186
CN1CC=C(c2c[nH]c3ccc(NC(=N)c4cccs4)cc23)CC1 | 215 to 218
COc1ccc(C(=O)Nc2ccccc2)cc1NC(=S)Nc1cccc(C)c1 | 168 to 171
O=C(C(=O)c1ccc(Oc2ccc(Br)cc2)cc1)c1ccccc1 | 85 to 86
CNC(=O)c1c(NC(=O)CCl)c(OC)c(C(=O)NC)c([N+](=O)[O-])c1OC | 259 to 260
N#Cc1ccc(CC(NC(=O)C(Cc2ccccc2)S(=O)(=O)Nc2ccc3ccccc3c2)C(=O)N2CCCCC2)cc1 (stereo not given) | 210
CC(C)C1(Cl)Cc2cc(OCC(=O)O)c(Cl)c(Cl)c2C1=O (stereo not given) | 158 to 159
CC(=O)SCCS(C)(=O)=O | 57 to 59
CC(C)c1cccc(C(C)C)c1NC(=O)CNC(c1cccc(C(F)(F)F)c1)c1cccc(C(F)(F)F)c1 | 144 to 145
CCS(=O)(=O)CCOc1cc(C)c(-c2cccc(COc3ccc(CCC(=O)O)c(F)c3)c2)c(C)c1 | 126 to 127

Compound | melting point [°C]
O=C(O)c1ccc2sc3ccccc3c(=O)c2c1 | 310 to 316
COc1cc(Nc2nc3cccc(-c4cccnc4)c3o2)cc(OC)c1OC | 165 to 170
CNC(=O)c1c(-c2ccccc2)noc1C=C(N)c1ccccc1 | 181 to 183
O=C(C=Cc1cccc(-c2ccccc2)c1)Nc1ccc(CN2CCCCC2)cc1 | 159 to 160
c1cc(-c2cnco2)cc(-c2ncc(-c3cccc(-c4cnc(-c5cccc(-c6cnco6)c5)o4)n3)o2)c1 | 254 to 256
Nc1nc2cc(Cl)c(Cl)cc2[nH]1 | 260 to 262
COc1ccc(CC(NC(=O)CNC(=O)OCc2ccccc2)C(=O)NC2C(C(=O)O)OC(n3cnc4c(NC(=O)c5ccccc5)ncnc43)C2O)cc1 (stereo not given) | 78 to 84
N#CNC(=N)CCCSc1nccc(NC(N)=NCC(F)(F)F)n1 | 224
S=C1NCC(C2=CCC=CC2)N1 (stereo not given) | 165 to 167
OC(c1ccc2c(c1)CCN2)(C(F)F)C(F)(F)F (stereo not given) | 129 to 132
C(=Cc1ccc(-c2cc3cc(-c4ccccc4)ccc3o2)cc1)c1ccc(-c2ccccc2)cc1 | 356 to 358
O=S(=O)(NCCc1ccc(CCl)cc1)c1ccc(Cl)cc1 | 96 to 98
CCCS(=O)(=O)N=C(NC)NCCSCc1[nH]cnc1C | 73 to 74
CN1Cc2c(C#CC(C)(C)OC(=O)C(C)(C)C)ncn2-c2cccc(Cl)c2C1=O | 132 to 133
N#CCOC(=O)c1ccc(C(c2ccccc2)(c2ccccc2)c2ccccc2)cn1 | 173 to 175
NC(=O)N1CCC[C@@H]1C#CCN1CCCC1 | 117 to 122
CC1(C)C(=O)C(C)(C)c2cc([N+](=O)[O-])c([N+](=O)[O-])cc21 | 212 to 218
C=CCN(CC=C)Cc1noc(-c2ncn3c2[C@@H]2CCN2C(=O)c2c-3cccc2C(F)(F)F)n1 | 147 to 150
CCOC(=O)C(=CNC1CC1)C(=O)c1c(F)c(F)c(F)c(F)c1N(C)C | 122 to 124
CCc1cc(OC)cc(C(=O)O)c1C(=O)OC | 116 to 118

Now from value to compound:

melting point [°C] | Compound
229 to 232 | Nc1ccc2nc3c(nc2c1)OCC1CCCCN31 (stereo not given)
204 to 205 | Cc1ccc(N2CCN(Cc3c[nH]c4ncccc34)CC2)nc1
136 to 139 | O=C1c2ccccc2SCC1(CO)CO
96.7 | CCCOc1ccc(C=CC(=O)c2c(O)cc(OC)cc2OC)cc1
99 to 100 | CCOc1ccc(S(=O)(=O)Cl)cc1C(=O)OC
> 300 | O=c1[nH]c2ccc(S(=O)(=O)O)cc2[nH]c1=O
189 to 190 | N#Cc1cc(-c2nc3cncnc3s2)ccc1Sc1cccc(F)c1
107 | CC1(C)c2ccccc2S(=O)(=O)N1CCCCl
77 to 79 | COC(=O)C(C(=O)OC)c1ccc(Br)cc1
108 to 110 | COCC1CN(c2ccc(Br)nc2)C(=O)O1 (racemic)
113 | COC(=O)c1cc(C)cc(Br)c1NS(=O)(=O)c1ccc(OC)cc1
168 to 169 | O=C(O)C1(c2ccc3c(c2)OCO3)CC(F)(F)C1(F)F (stereo not given)
221 to 224 | CCOc1ccc2c(Nc3ccc(Cl)cc3F)c(C#N)cnc2c1
136 to 137 | COc1cc(C(=O)n2ccnc2)cc([N+](=O)[O-])c1OC
230 | CC1(c2ccc(S(C)(=O)=O)cc2)OC=C(Br)C(=O)C1Oc1ccc(F)cc1F (stereo not given)
165 to 167 | CC(C)Cn1c(=O)n(C)c(=O)c2c(CCC(=O)O)c(Cc3ccccc3C(F)(F)F)sc21
197 to 198 | CS(=O)(=O)Nc1ccc(C(=O)CN2CCN(c3cccnc3)CC2)cc1
104 to 105 | CN(C)CCOc1ccc(CNC(=O)c2ccccc2N)cc1
101 | CC(=CC(C)(O)c1ccc(Cl)cc1Cl)n1cncn1 (stereo not given)
115 to 117 | CCCC(=O)c1c[nH]c2c(COC(=O)c3ccccc3)cccc2c1=O

melting point [°C] | Compound
100 to 102 | CCCCOc1ccc2cc(O)ccc2c1
172 to 175 | Cc1nc2c(N)nc3ccccc3c2n1CCOCCNS(=O)(=O)C(C)C
169 to 170 | CCOP(=O)(OCC)c1ccc(CNC(=O)C2=Cc3cc(C4CCCCC4)ccc3CC2)cc1
93 to 96 | CC(COc1ccc(CCO)cc1)NCC(O)c1ccccc1 (stereo not given)
245 to 248 | CCn1c(=O)c(C(=O)O)c(N)c2cccnc21
162 to 163 | COc1c(NC(=O)c2ccc(Br)cc2)cccc1[N+](=O)[O-]
148 to 150 | NC(=O)N1CCC(c2nn(-c3ccc(C(F)(F)F)cc3)c3cc(F)ccc23)CC1
90 to 95 | Cc1oncc1C(=O)Nc1ccc(-n2nc(C(F)(F)F)cc2C2CC2)cc1
110 to 112 | CCCc1ccc(-n2ncc(C#N)c2N(C(C)=O)C(C)=O)c(Cl)c1
103 to 105 | CC1(C)Oc2ccc(S(=O)(=O)c3ccccc3)cc2[C@@H](O)[C@@H]1Br (relative stereo)
168 to 170 | CCNC(=O)C(C)(C)COc1cccc2nc(C)c(C(=O)O)c(N)c12
227 to 230 | CC(=O)Oc1nc(-c2ccc(C(=O)O)cc2)sc1C
60 to 61 | Nc1c(Cl)cc(C(O)CNCCCCCCOCCCc2ccc([N+](=O)[O-])cn2)cc1Cl (stereo not given)
142 to 144 | CC(C)(C)[Si](C)(C)Oc1ccc2c(c1)oc(=O)c1c3ccc(O[Si](C)(C)C(C)(C)C)cc3sc21
94 to 95 | COc1ccc(CCCCNC(=O)CCl)cc1OC
204 to 206 | COc1ccc(CNc2ncc(Cl)cc2C(=O)O)cc1
95 to 97.6 | Cc1ncsc1C(=O)Nc1ccc(-n2nc(C(F)(F)F)cc2C2CC2)c(F)c1
53 to 55 | COC(=O)c1ccc(OCC2CO2)cc1O (stereo not given)
88 to 90 | COC(=O)C=CC(=O)c1ccc(Oc2ccccc2)cc1
129 to 131 | Cc1cc(OCCOc2ccc3ccccc3c2)ccc1C(=O)C(=O)O

melting point [°C] | Compound
162 | O=C(O)CCCCc1cccc(-c2nc(=O)c3ccccc3s2)n1
102 to 103 | COc1cc(C(=O)CCl)ccc1O
130 | CC(C(=O)O)c1cccc(NC(=O)NCC(=O)N2[C@@H](c3cccc(F)c3F)SC[C@H]2C(=O)OC(C)(C)C)c1 (stereo not given in full)
172 to 174 | O=C1CCNC(=O)C1C(=O)c1ccc(Cl)c(Cl)c1 (stereo not given)
106 to 107 | Cc1nc(CCOc2ccc(N)cc2)oc1-c1ccccc1
113 to 119 | O=C(CCCCNCCOc1cccc2cccnc12)NC1CCCCC1
244 to 246 | COc1ccc(-c2cc3nccnc3[nH]2)cc1
194 to 195 | COC1CCN(c2cccc(-c3cnc4[nH]cc(C(=O)C(C)(C)C)c4n3)c2)C1 (stereo not given)
95 to 97 | CC(C)NCC(O)COc1ccc2c(c1)C(=O)OC2 (stereo not given)
144 to 147 | CS(=O)(=O)Nc1cccc(Nc2nc(NCc3cccnc3)c3nc[nH]c3n2)c1
177 to 178 | C#CCOc1ccc(/C=C/c2nc3ccccc3c(=O)o2)cc1OC
132 | COc1ccc(C2=NC[C@@H](OC(=O)Nc3ccccc3)[C@H](c3ccccc3)O2)cc1 (racemic)
142 to 143 | N#Cc1ccc(-c2ccc(OCCCCC(=O)NO)cc2)cc1
148 to 150 | CCCc1c2ccccc2c(O)c2c(=O)cc(C(=O)OCC)oc12
> 80 | CCN1c2ncccc2C(=O)N(C)c2ccc(-c3cc[nH]c3C(C)=O)nc21
214 to 216 | COc1nccc(C(F)(F)F)c1S(=O)(=O)Nc1nc2c(OC)cnc(OC)n2n1
230 | COC(=O)C1=C(C)Nc2c(c(=O)n(C)c(=O)n2C)C1c1cccc(Cl)c1 (stereo not given)
126 to 128 | Cc1cc(-c2nnn(C)n2)cc(C)c1OCCCn1ncnc1C
177 to 179 | COC(=O)c1ccc(-c2ccc(Cl)cc2)[nH]1
178 to 180 | Cn1c2c3ccccc3nc-2cc2ccccc21

— a melting point compilation (Tetko et al.; mined from patent text by program, amines drawn as free bases though some values may be those of a salt)
